From patent US11260042B2, “Pharmaceutical combination for the treatment of cancer” (ABILITY PHARMACEUTICALS S.L., priority 2017, dated 2022)
“Also recorded” adds a separate entry of the source. Where two headings read alike, the source gives them in different places.

Columns and labels:
H157 cells = test: Cell viability (MTT) of ABTL0812 in combination with paclitaxel, H157; format: cell-based, human; conditions: H157, 48 hours, 0.1% FBS, single agent
Protocol: (§1) Methods: A549 cells were incubated with increasing concentrations of ABTL0812 (3-300 μM), paclitaxel (0.003-1 μM), or a combination of both using subIC50 fixed concentration of ABTL0812 and 0.003-1 μM paclitaxel for 72 hours in DMEM with 0.1% FBS. H157, H1957 and HTB-812 cells were incubated with increasing concentrations of paclitaxel (0.001-10 μM) alone and in combination with subIC50 fixed concentration of ABTL0812 for 48 hours in DMEM with 0.1% FBS. Cell viability was evaluated in all cases by MTT assay and IC50's were calculated for paclitaxel and the combination. The concentrations of the combinations for the different cell lines were:
(§2) Finally, the Combination Index (CI), as described in the previous section, was calculated for the values of paclitaxel IC50.

HTB-812 cells = test: Cell viability (MTT) of ABTL0812 in combination with paclitaxel, HTB-812; format: cell-based, human; conditions: HTB-812, 48 hours, 0.1% FBS, single agent
Protocol: as §1, §2

[1] = system: MDB-DA-231 (human triple negative breast cancer); test: Cell viability (MTT) of ABTL0812 alone or with paclitaxel in breast cancer; format: cell-based
Protocol: Methods: MDB-DA-231 cells were seeded in 24-well plates together with increasing concentration of paclitaxel (1-100 nM) in the presence of 5, 10 and 20 μM of ABTL0812 (all doses below to an IC25) for 48h (0.5% FBS). Cell viability was studied by the MTT assay and several parameters were determined to evaluate a possible synergism. First the IC50 for each drug alone or the combination was calculated.

[2] = system: A549 human lung adenocarcinoma xenograft; format: in vivo; conditions: ABTL0812 30 mg/kg/day oral 5 times a week; docetaxel 5 mg/kg i.p. once a week
Protocol: Methods: Mice were injected with 5×10^6 A549 cells in each flank to induce tumor formation. […] ABTL0812 was administered by the oral route at 30 mg/kg/day, 5 times a week. Docetaxel 5 mg/kg was administered intra-peritoneally once a week (Coxon et al. 2012). Tumor volume and body weight were monitorized 3 times a week.

[3] = system: H157 human squamous lung cancer xenograft; format: in vivo; conditions: day 20 after beginning of treatments; ABTL0812 120 mg/kg oral; end-point tumor volume >1000 mm^3 or welfare
Protocol: Objective: Investigate survival rate for ABTL0812 alone and in combination with paclitaxel and carboplatin (P/C) with a Kaplan-Meier analysis in a human squamous NSCLC xenograft model Methods: Mice were injected with 5×10^6 H157 cells in one flank to induce tumor formation. […] The different conditions studied were vehicle, 120 mg/kg oral ABTL0812 daily, 15 mg/kg carboplatin+50 mg/kg paclitaxel by i.p. route and an additional group receiving the combination of these two regimens. […] Tumor volume was monitored 3 times a week.

[4] = system: MiaPaca2 human pancreatic cancer xenograft; format: in vivo; conditions: ABTL0812 120 mg/kg oral; P/Gm 15 mg/kg and 60 mg/kg two times per week; 4 weeks
Protocol: Methods: Athymic female nude mice (n=9 per group) were injected via subcutaneous route with 0.1 ml of MiaPaca2 cells (5×10^6 cell/ml in serum free DMEM media in 1:1 with matrigel) in one flank. Tumor Volumes (TV) were measured as length×width^2×½ three times a week.

[5] = system: MiaPaca2 human pancreatic cancer xenograft; test: Human pancreatic xenograft (MiaPaca-2), gemcitabine and Nab-paclitaxel/gemcitabine; format: in vivo, Athymic Nude-Foxn1nu female mice; conditions: ABTL0812 120 mg/kg oral 5 times a week; gemcitabine 60 mg/kg, Nab-Paclitaxel 5 mg/kg i.p. 2 times a week (suboptimal chemotherapy dose)
Protocol: It is important to change the site of injection to avoid intestinal necrosis and keep Nab-Paclitaxel and gemcitabine injections as far as possible one from the other in mice abdomen. • Gemcitabine+ABTL0812 (n=10): treated orally with 120 mg/kg of ABTL0812 in 200 μl of distilled water+5% glycerol, 5 times a week and with 60 mg/kg of gemcitabine administered i.p in 100 μl of sterile water, 2 times a week. ABTL0812 was always administered before chemotherapy with the aim of reducing the stress derived from the i.p. injection, that is normally applied as the last administration. • Gemcitabine+Nab-Paclitaxel+ABTL0812 (n=8): treated orally with 120 mg/kg of ABTL0812 in 200 μl of distilled water+5% glycerol, 5 times a week, with 60 mg/kg of gemcitabine administered i.p. in 100 μl of sterile water, 2 times a week and with 5 mg/kg of Nab-Paclitaxel administered i.p. in 230 μl of 0.9% NaCl solution 2 times a week. As in the gemcitabine+Nab-Paclitaxel group, injections where administered in separated areas of the abdomen. […]
Treatment efficacy was assessed by measuring tumor volume three days a week. Additionally, total body weight was monitored three days a week to test the toxicity associated with the treatments in addition to visual examination of signs indicative of clinicopathological symptoms. […]

[6] = system: EGI-1 human cholangiocarcinoma xenograft; test: Human cholangiocarcinoma (EGI-1) xenograft, gemcitabine and cisplatin; format: in vivo, Nu/nu male mice; conditions: ABTL0812 120 mg/kg oral; gemcitabine 50 mg/kg and cisplatin 2 mg/kg i.p. once a week
Protocol: Methods: EGI-1 cell line was routinely cultured in DMEM 10% FBS and cells in an exponential growth phase were harvested and counted for tumor inoculation.
Treatment groups were: • Vehicle group (n=8): treated orally with 200 μl of water+5% glycerol four days a week and two injections i.p. of 100 μl of saline solution once a week • ABTL0812 (n=8): treated orally with 200 μl of 120 mg/kg of ABTL0812 resuspended in water+5% glycerol 5 times a week • Gemcitabine/cisplatin (n=8): treated with 100 μl of 50 mg/kg of gemcitabine administered i.p. and 100 μl of 2 mg/kg of cisplatin administered i.p. once a week • ABTL0812+gemcitabine/cisplatin (n=8): treated orally with 200 μl of 120 mg/kg of ABTL0812 four days a week and 100 μl of 50 mg/kg of gemcitabine administered i.p. and 100 μl of 2 mg/kg of cisplatin administered i.p. once a week

[7] = format: in vivo
Protocol: Methods: Forty-five female CD-1 mice were distributed by means of the body weight stratification method into nine experimental groups (A-I) (5 animals for group) that differed in the treatment or in the day on which the reference items (paclitaxel and carboplatin) were administered.
The table below summarizes the treatment groups. Please note that the same administration schedule and doses were administered as in the previous efficacy studies.
The safety assessment relied on observed mortality, local and systemic clinical signs, body weight and food consumption recorded throughout the whole study. In addition, clinical pathology determinations (biochemistry and hematology) were performed before sacrifice in all animals. At the end of the observation period (one day after the last administration), all surviving animals were sacrificed and subjected to a gross necropsy. Moreover, the safety assessment was also based on the weight of selected target organs collected at sacrifice.

For CCCCC/C=C\C/C=C\CCCCCCC(O)C(=O)O (centres unmarked) [ABTL0812, COOH—CHOH—(CH2)6—(CH═CH—CH2)2—(CH2)3—CH3], which IC50 (H157 cells) is on record?
The IC50 was 23 µM.

What about the IC50 (HTB-812 cells) of the same compound?
The IC50 was 29 µM.

And the “cytotoxicity alone at the concentration chosen for the combination” value ([1]; MDB-DA-231)?
The value was less than 10%.

What about the IC50 ([1]; MDB-DA-231, 48h, 0.5% FBS, MTT, single agent) of the same compound?
Its IC50 is 29 µM.

And the tumor volume [2]?
Its tumor volume is “significantly reduced tumor volume when compared to control animals”.

And the “survival (Kaplan-Meier)” value [3]?
The value was 0%.

What about the tumor volume [4] of the same compound?
The tumor volume was “positive effect within the first 15 days after treatment, showing similar tumor volume to vehicle group in the following days”.

And the tumor volume [5]?
Its tumor volume is “better response in tumor volume evolution than Gem+Nab-Pac group during the first 20 days of treatment; also recorded: better response in tumor volume evolution than Gem group during the whole study”.

And the tumor volume [6]?
Its tumor volume is “did not show tumor volume reduction compared to vehicle until the last day of treatment”.

What about the “Biochemistry Creat” value ([7]; mouse, in vivo) of the same compound?
The value was 9.18 µmol/L.

What about the “Biochemistry Triglyc” value ([7]; mouse, in vivo) of the same compound?
The value was 0.94 mmol/L.

What about the “Biochemistry Urea” value ([7]; mouse, in vivo) of the same compound?
The value was 3.66 mmol/L.

What about the “Body Weight Gain D 8-11” value ([7]; mouse, in vivo) of the same compound?
Its value is 0.138 g.

What about the “Hematology PLT” value ([7]; mouse, in vivo) of the same compound?
Its value is 1293 ×10^3/μL.

And the “Hematology RBC” value ([7]; mouse, in vivo)?
Its value is 9.57 ×10^6/μL.

And the “Hematology WBC” value ([7]; mouse, in vivo)?
Its value is 5.94 ×10^3/μL.

And the mortality and tolerability ([7]; two-week administration)?
Its mortality and tolerability is “did not cause mortality and was well tolerated”.
